Laboratory results from PubChem BioAssay (NCI).
Values joined by “and” are separate entries in the source; they are usually repeats but may differ in a detail not shown here. Identical values can stand only once.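 Tested at 5 concentrations; 48 h exposure; 96-well plates; endpoints linearly interpolated, else capped at highest concentration. GI50: concentration for 50% inhibition of growth. TGI is the concentration that stops growth completely.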

Legend:
Test in all cases: growth of human tumour cells (NCI), 48 h
RPMI-8226 leukemia = tested on: RPMI-8226 leukemia
SNB-19 CNS = tested on: SNB-19 CNS
EKVX NSCLC = tested on: EKVX NSCLC
SF-268 CNS = tested on: SF-268 CNS
UACC-62 melanoma = tested on: UACC-62 melanoma
K-562 leukemia = tested on: K-562 leukemia
SK-MEL-5 melanoma = tested on: SK-MEL-5 melanoma
SK-MEL-2 melanoma = tested on: SK-MEL-2 melanoma
RXF 393 renal = tested on: RXF 393 renal
SK-MEL-28 melanoma = tested on: SK-MEL-28 melanoma

Row | SMILES | TGI (RPMI-8226 leukemia) [µM] | TGI (SNB-19 CNS) [µM] | TGI (EKVX NSCLC) [µM] | TGI (SF-268 CNS) | TGI (UACC-62 melanoma) | TGI (K-562 leukemia) | TGI (SK-MEL-5 melanoma) | TGI (SK-MEL-2 melanoma) | TGI (RXF 393 renal) | TGI (SK-MEL-28 melanoma) [µM] | GI50 (RPMI-8226 leukemia) [µM] | GI50 (SNB-19 CNS) | GI50 (EKVX NSCLC) | GI50 (SF-268 CNS) [µM] | GI50 (K-562 leukemia) [µM] | GI50 (SK-MEL-5 melanoma) [µM] | GI50 (SK-MEL-2 melanoma) | GI50 (RXF 393 renal) [µM] | GI50 (SK-MEL-28 melanoma) | GI50 (UACC-62 melanoma) [µM]
1 | C=CCNC(=O)CN(CC(=O)OC)C1CCCCC1N(CC(=O)OC)CC(=O)OC (centres undefined) | > 100 | > 100 | > 100 | > 100 µM | > 100 µM | > 100 µM | > 100 µM | > 100 µM | > 100 µM | > 100 |  |  |  |  |  |  |  |  |  | 
2 | O=C(O)C12CC3CC(C1)C2C=C3P(=O)(O)O (centres undefined) | > 100 |  | > 100 | > 100 µM | > 100 µM | > 100 µM |  | > 100 µM | > 100 µM | > 100 |  |  |  |  |  |  |  |  |  | 
3 | COc1cc(/C=C/C2=C(C#N)C(=O)OC2(C)C)ccc1O | 49.6 | > 100 | > 100 | > 100 µM | > 100 µM | > 100 µM | > 100 µM | > 100 µM | > 100 µM | > 100 |  |  |  |  |  |  |  |  |  | 
4 | Nc1n[nH]c(CCCCCCCc2nc(N)n[nH]2)n1 | > 100 | > 100 | > 100 | > 100 µM | > 100 µM | > 100 µM |  | > 100 µM | > 100 µM | > 100 |  |  |  |  |  |  |  |  |  | 
5 | Cc1c(C2=NN=C(N=Nc3c(O)cccc3O)/C2=C/c2ccccc2)c(=O)n(-c2ccccc2)n1C | > 100 | > 100 | > 100 | > 100 µM | > 100 µM | > 100 µM | > 100 µM | > 100 µM | > 100 µM | > 100 |  |  |  |  |  |  |  |  |  | 
6 | CC(C)=CC(=O)OC1C2C(C)=CC(O)C(O)C2(C)C2C3(O)OCC24C(CC(=O)OC14)C(C)C3O (centres undefined) | 0.131 | 0.519 | 0.642 | 0.733 µM | 0.263 µM | 1.79 µM | 0.064 µM | 0.655 µM | 0.933 µM | 0.199 |  |  |  |  |  |  |  |  |  | 
7 | Cc1cn(C2CC(O)C(Cn3nncc3Cn3ncc(=O)[nH]c3=O)O2)c(=O)[nH]c1=O (centres undefined) | > 100 | > 100 | > 100 | > 100 µM | > 100 µM |  | > 100 µM | > 100 µM | > 100 µM | > 100 |  |  |  |  |  |  |  |  |  | 
8 | Cc1cccc(CNc2ncnc3[nH]ncc23)c1 | > 100 | > 100 | > 100 | > 100 µM | > 100 µM | > 100 µM | > 100 µM | > 100 µM | > 100 µM | > 100 |  |  |  |  |  |  |  |  |  | 
9 | O=C1c2ccccc2C(=O)c2c1cc1c(c2[N+](=O)[O-])OCO1 | 0.916 | 14.4 | 9.8 | 7.73 µM |  | 6.26 µM | 11.7 µM | 5.14 µM | 2.04 µM | 26.6 | 0.267 | 2.55 µM | 2.92 µM | 1.46 | 0.621 | 3.48 | 2.56 µM | 0.506 | 3.52 µM | 
10 | O=C(O)CCCc1ccccc1 | 79.2 | > 1000 | > 1000 | 348 µM and > 1000 µM | 587 µM and > 1000 µM | 338 µM and > 1000 µM | 427 µM and > 1000 µM | 932 µM and > 1000 µM | 604 µM and > 1000 µM | > 1000 | 19.5 | 537 µM and > 1000 µM | 294 µM and > 1000 µM |  | > 1000 | > 1000 | 349 µM and > 1000 µM | > 1000 | 325 µM and > 1000 µM | > 1000
11 | CCCCCCCCCCCCC(O)C(=O)O (centres undefined) | > 100 | > 100 |  |  | > 100 µM | > 100 µM | > 100 µM | > 100 µM |  |  |  |  |  |  |  |  |  |  |  | 
